Reference: patent US20030087774A1, “Fragrance compositions for the CO2 washing process” (priority 2001, published 2003)

Test: CO2 wash test of model fragrance A on cotton fabric (supercritical fluid extractor, GC FID)
Assay type: physicochemical
Conditions: for fraction left on fabric: from the wash test of Table 2; for % Left on Fabric: supercritical CO2 43° C., 77 bar, density 0.25 g/ml, cotton fabric
Protocol: The device used for this experiment was an Hewlett Packard 7680T SFE Supercritical Fluid Extractor. 1 g of cotton fabric was put into a 7 ml Thimble. 0.01 grams of the model fragrance A was applied to the uppermost part of the fabric representing the earliest stage of the CO2 cleaning process.
The CO2 properties used were: density=0.25 g/ml, pressure=77 bar (Pc=73.8 bar), temperature=43° C. These were supercritical as the Critical Temperature for CO2 is 31.1° C.
CO2 was introduced into the thimble and allowed to soak for 2 min. The thimble was flushed with CO2 for 5 min at a flow rate of 2 ml/min. The CO2/fragrance mixture was carried into the trap where the CO2 was evaporated leaving the fragrance on the analytical trap packing being maintained at −30 deg C. The trap was rinsed with Acetone. The fragrance/acetone mixture was analyzed using gas chromatography with flame ionization detection (GC FID).
The results on the GC FID were used to calculate the % of each fragrance ingredient that was retained on the fabric. (90% means that 90% of the fragrance was substantive on the fabric).

Molecule | fraction left on fabric | % Left on Fabric [%]
CC(C)=CCCC(C)CCO (centres unmarked) [Gitronellol 950, Citronellol 950] | 0.763 | 76
CC(C)=CCC/C(C)=C/CO [Geraniol, Supra] | 0.769 | 77
CC1=CCC2CC1C2(C)C (stereo not drawn) [Pinene, Alpha, alpha-Pinene] | 0.989 | 99
O=C(OCc1ccccc1)c1ccccc1O [Benzyl Salicylate] | 0.908 | 91
Methyl Ionone Gamma Coeur |  | 74
C=CCc1ccc(O)c(OC)c1 [Eugenol] | 0.794 | 79
O=c1ccc2ccccc2o1 [Coumarin] | 0.945 | 94
CC(=O)OC(C)(C)Cc1ccccc1 [Dimethyl Benzyl Carbinyl Acetate] | 0.689 | 69
O=C1CCCCCCCCCCCC(=O)OCCO1 [Ethylene Brassylate] | 0.928 | 93
CC(C=O)Cc1ccc(C(C)(C)C)cc1 (centres unmarked) [Lilial] | 0.781 | 78
CC(=O)OCc1ccccc1 [Benzyl Acetate] | 0.799 | 80
C=C1CCC2CC1C2(C)C (stereo not drawn) [Pinene, Beta, beta-Pinene] | 0.995 | 100
Terpineol, Pure | 0.691 | 69
CC(=O)O[C@@H]1C[C@H]2CC[C@]1(C)C2(C)C (racemic) [Iso Bornyl Acetate] | 0.741 | 74
C[C@@H]1CC[C@H]2C(C)(C)[C@H]3C[C@@]12CC[C@@]3(C)O [Cedrol] | 0.839 | 84
CC(=O)O[C@]1(C)CC[C@@]23C[C@@H]1C(C)(C)[C@@H]2CC[C@H]3C [Cedryl Acetate] | 0.834 | 83
CCCCC/C(C=O)=C/c1ccccc1 [Amyl Cinnamic Aldehyde] | 0.83 | 85
CC(=O)OCCc1ccccc1 [Phenyl Ethyl Acetate] | 0.698 | 70
CCOC(=O)c1ccccc1C(=O)OCC [Diethyl Phthalate] | 0.807 | 81
C=CC(C)CCCC(C)(C)O (centres unmarked) [Dihydro Myrcenol] | 0.737 | 74
CC(=O)c1c(C)c([N+](=O)[O-])c(C(C)(C)C)c([N+](=O)[O-])c1C [Musk Ketone] | 0.905 | 91
OCCc1ccccc1 [Phenyl Ethyl Alcohol] |  | 83
CC(C)CCOC(=O)c1ccccc1O [Iso Amyl Salicylate] | 0.759 | 76
CCCCCCC(C=O)=Cc1ccccc1 [Hexyl Cinnamic Aldehyde] | 0.863 | 86
CC(=O)OCC=C(C)C [Prenyl acetate] | 0.969 | 97
CC(=O)OC1CCC(C(C)(C)C)CC1 (centres unmarked) [Oryclon/Vertenex] | 0.687 | 69
CC(CC=O)CCCC(C)(C)O (centres unmarked) [Hydroxy Citronellal P] | 0.846 | 85
C=C(C)[C@H]1CC=C(C)CC1 [Limonene D] | 0.977 | 98
CC(=O)/C=C/C1C(C)=CCCC1(C)C (stereo not drawn) [Ionone, Alpha] | 0.729 | 73
